Data reported in ChEMBL document CHEMBL1147178, “Novel thiol-based TACE inhibitors: rational design, synthesis, and SAR of thiol-containing aryl sulfonamides” (Bioorg Med Chem Lett, 2007).

Columns and labels:
[1] = molecular target: Disintegrin and metalloproteinase domain-containing protein 17 (Homo sapiens, UniProt P78536); experiment: Inhibition of TNF-alpha converting enzyme
[2] = molecular target: 72 kDa type IV collagenase (Homo sapiens, UniProt P08253); experiment: Inhibition of MMP2
Matrilysin = molecular target: T1, Matrilysin (Homo sapiens, UniProt P09237); experiment: Inhibition of MMP7
T1 sequence (P09237 whole entry): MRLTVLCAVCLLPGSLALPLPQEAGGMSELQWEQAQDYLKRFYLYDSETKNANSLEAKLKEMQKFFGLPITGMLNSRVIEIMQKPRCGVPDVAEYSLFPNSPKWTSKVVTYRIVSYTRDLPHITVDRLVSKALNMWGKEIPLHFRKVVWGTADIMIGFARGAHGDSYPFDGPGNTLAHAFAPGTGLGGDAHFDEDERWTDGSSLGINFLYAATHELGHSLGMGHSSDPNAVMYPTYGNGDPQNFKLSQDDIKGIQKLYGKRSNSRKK

Neutrophil collagenase = Neutrophil collagenase (Homo sapiens, UniProt P22894); experiment: Inhibition of MMP8
Chain of Neutrophil collagenase (P22894 whole entry): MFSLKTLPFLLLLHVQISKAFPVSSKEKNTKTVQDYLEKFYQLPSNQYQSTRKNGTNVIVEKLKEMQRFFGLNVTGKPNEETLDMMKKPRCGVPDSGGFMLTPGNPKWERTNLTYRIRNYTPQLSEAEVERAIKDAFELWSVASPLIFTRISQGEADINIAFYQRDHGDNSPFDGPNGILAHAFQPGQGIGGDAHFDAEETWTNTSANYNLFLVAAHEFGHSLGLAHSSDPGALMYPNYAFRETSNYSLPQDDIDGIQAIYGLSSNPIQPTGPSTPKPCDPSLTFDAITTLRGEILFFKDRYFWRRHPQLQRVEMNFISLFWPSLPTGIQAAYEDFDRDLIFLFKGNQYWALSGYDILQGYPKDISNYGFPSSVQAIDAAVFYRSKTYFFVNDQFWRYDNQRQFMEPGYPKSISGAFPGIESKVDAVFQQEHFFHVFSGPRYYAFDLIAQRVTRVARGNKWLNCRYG

[3] = molecular target: Matrix metalloproteinase-9 (Homo sapiens, UniProt P14780); experiment: Inhibition of MMP9
Chain of Matrix metalloproteinase-9 (P14780 whole entry, looked up): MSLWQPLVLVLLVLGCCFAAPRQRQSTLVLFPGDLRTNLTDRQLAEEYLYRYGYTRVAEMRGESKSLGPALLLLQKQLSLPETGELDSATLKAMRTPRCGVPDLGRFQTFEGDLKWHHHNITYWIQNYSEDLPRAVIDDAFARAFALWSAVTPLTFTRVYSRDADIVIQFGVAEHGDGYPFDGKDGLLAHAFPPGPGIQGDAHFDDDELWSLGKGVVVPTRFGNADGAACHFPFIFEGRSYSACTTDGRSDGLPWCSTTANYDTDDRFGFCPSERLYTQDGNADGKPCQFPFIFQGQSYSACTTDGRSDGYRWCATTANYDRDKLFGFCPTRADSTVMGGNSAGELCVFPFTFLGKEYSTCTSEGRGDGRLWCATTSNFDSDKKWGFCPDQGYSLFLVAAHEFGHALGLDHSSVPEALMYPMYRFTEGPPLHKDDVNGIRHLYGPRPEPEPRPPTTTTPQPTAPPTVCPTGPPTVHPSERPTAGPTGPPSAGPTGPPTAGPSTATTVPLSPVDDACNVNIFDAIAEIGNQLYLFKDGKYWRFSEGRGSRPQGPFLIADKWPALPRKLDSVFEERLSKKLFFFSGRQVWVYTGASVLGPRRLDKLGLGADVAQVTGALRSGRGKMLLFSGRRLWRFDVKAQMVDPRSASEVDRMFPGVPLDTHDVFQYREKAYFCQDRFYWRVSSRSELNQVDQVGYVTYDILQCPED

Collagenase 3 = Collagenase 3 (Homo sapiens, UniProt P45452); experiment: Inhibition of MMP13

Chain of Disintegrin and metalloproteinase domain-containing protein 17 (P78536 whole entry, the tested form may be a part): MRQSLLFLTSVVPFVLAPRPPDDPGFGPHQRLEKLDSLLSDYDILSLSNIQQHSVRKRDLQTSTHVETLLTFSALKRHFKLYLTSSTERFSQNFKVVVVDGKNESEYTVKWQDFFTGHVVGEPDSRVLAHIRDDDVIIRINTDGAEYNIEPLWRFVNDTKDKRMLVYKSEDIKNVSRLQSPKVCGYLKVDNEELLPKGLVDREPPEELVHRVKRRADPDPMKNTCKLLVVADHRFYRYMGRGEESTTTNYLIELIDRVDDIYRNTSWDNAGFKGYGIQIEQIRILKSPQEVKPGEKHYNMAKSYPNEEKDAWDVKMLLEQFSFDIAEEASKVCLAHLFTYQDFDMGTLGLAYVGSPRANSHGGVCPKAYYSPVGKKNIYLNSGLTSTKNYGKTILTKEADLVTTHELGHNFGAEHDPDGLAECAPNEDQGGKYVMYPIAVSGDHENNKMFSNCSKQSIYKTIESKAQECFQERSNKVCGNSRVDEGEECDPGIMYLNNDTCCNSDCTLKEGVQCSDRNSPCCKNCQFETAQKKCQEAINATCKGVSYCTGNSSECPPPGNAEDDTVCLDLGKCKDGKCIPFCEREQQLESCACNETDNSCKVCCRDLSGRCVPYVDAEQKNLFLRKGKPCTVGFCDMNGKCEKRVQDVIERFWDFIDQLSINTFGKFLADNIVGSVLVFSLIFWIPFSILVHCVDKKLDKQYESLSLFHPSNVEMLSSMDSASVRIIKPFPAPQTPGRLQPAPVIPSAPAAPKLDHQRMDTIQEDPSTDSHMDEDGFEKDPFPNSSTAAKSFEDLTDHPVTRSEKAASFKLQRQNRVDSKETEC
Chain of 72 kDa type IV collagenase (P08253 whole entry): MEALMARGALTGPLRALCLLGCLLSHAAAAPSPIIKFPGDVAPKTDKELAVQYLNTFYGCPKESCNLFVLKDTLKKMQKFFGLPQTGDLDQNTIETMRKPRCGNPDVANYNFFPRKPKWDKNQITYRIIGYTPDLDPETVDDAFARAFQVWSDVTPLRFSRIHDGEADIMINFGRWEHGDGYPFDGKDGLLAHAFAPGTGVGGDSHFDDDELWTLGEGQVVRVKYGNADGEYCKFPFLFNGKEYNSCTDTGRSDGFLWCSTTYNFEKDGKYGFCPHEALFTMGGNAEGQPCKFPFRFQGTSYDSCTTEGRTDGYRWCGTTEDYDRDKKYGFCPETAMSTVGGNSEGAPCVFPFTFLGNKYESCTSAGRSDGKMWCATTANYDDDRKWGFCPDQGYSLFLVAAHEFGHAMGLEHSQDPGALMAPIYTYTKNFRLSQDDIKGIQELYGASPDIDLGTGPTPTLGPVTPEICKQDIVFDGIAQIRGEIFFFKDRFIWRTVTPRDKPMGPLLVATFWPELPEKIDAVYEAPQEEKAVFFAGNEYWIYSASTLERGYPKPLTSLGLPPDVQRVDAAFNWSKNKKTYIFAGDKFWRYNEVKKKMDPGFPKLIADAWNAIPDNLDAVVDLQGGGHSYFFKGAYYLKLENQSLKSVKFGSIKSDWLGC

Row | Structure (SMILES) | Ki [1] [nM] | Ki [2] [nM] | Ki (Matrilysin) [nM] | Ki (Neutrophil collagenase) [nM] | Ki [3] [nM] | Ki (Collagenase 3) [nM]
1 | CC#CCOc1ccc(S(=O)(=O)N(C)C[C@H](C)S)cc1 | 27 |  |  |  |  | 
2 | CC#CCNc1ccc(S(=O)(=O)N2CC(S)C2)cc1 | 11 |  |  |  |  | 
3 | CC#CCNc1ccc(S(=O)(=O)N2CC[C@@H](S)C2)cc1 | 5 |  |  |  |  | 
4 | CC#CCOc1ccc(S(=O)(=O)N2CC(S)C2)cc1 | 13 |  |  |  |  | 
5 | CC#CCOc1ccc(S(=O)(=O)N(C)CCS)cc1 | 52 | 5700 | 33000 | 1300 | 200 | 2000
6 | CC#CCOc1ccc(S(=O)(=O)N(C)CC(=O)NO)cc1 | 10 | 27 | 3400 |  |  | 17
7 | CC#CCOc1ccc(S(=O)(=O)N2CC[C@@H](S)C2)cc1 |  | 5000 | > 6000 |  |  | 1200
8 | O=S(=O)(c1ccc(OCC#CCN2CCCCC2)cc1)N1CC[C@@H](S)C1 | 530 |  |  |  |  | 
9 | CN1CCN(CC#CCOc2ccc(S(=O)(=O)N3CC[C@@H](S)C3)cc2)CC1 | 3400 |  |  |  |  | 
10 | CC#CCOc1ccc(S(=O)(=O)N2CCCC(S)C2)cc1 (racemic) | 55 | > 3000 | > 3000 |  |  | 700
